According to patent publication EP0414533A1, “Use of iodopropargyl esters of alpha-amino acid derivatives as antimicrobial agents” (ROHM AND HAAS COMPANY, priority 1989, dated 1991):
≈ marks a conversion by molar mass, not a printed value. Where “and” joins values, the source holds several entries; their conditions need not be identical. Equal entries are not always repeated. Structures can show the parent of a compound that is named as a salt. Where two headings read alike, the source gives them in different places.

Assays:
[1] = system: Staphylococcus aureus (SAUR); experiment: Minimum inhibitory concentration (MIC), broth two-fold serial dilution test; conditions: for MIC: Staphylococcus aureus, read-out: MIC (G+) SAUR, M9G (minimal salts media with glucose); for MIC (G+) SAUR: M9G (minimal salts media with glucose)
[2] = system: Pseudomonas aerugenosa (PSAE); experiment: as above; conditions: for MIC: Pseudomonas, read-out: MIC (G-) PSAE, M9G (minimal salts media with glucose); for MIC (G-) PSAE: M9G (minimal salts media with glucose), trifluoroacetate
[3] = system: Piricularia oryzae (PIR); experiment: microbe, parasite or virus in culture; assay type: cell-based; conditions: for inhibition of growth at 25 ppm: read-out: % Control at 25 ppm PIR
[4] = system: Xanthomonas campestris (XAN); experiment: In-vitro plant fungicide test; assay type: cell-based; conditions: 25 ppm, Table IVa; for inhibition of growth at 25 ppm: Xanthomonas campestris, read-out: % Control at 25 ppm XAN
[5] = system: Botrytis cinerea (BOC); experiment: In-vitro plant fungicide test; assay type: cell-based; conditions: 25 ppm, Table IVa, *=Phytotoxic; for inhibition of growth at 25 ppm: Botrytis cinerea, read-out: % Control at 25 ppm BOC
[6] = system: Pythium ultimum (PYU); experiment: In-vitro plant fungicide test; assay type: cell-based; conditions: 25 ppm, Table IVa; for inhibition of growth at 25 ppm: Globisporangium ultimum, read-out: % Control at 25 ppm PYU
[7] = system: Pseudomonas fluorescens (PSFL); experiment: Minimum inhibitory concentration (MIC), broth two-fold serial dilution test; conditions: for MIC: Pseudomonas fluorescens, read-out: MIC (G-) PSFL, M9G (minimal salts media with glucose)
[8] = system: Aureobasidium pullulans (APUL); experiment: as above; assay type: cell-based; conditions: for MIC: Aureobasidium pullulans
[9] = system: Aspergillus niger (ANIG); experiment: as above; assay type: cell-based; conditions: for MIC: Aspergillus niger
[10] = system: THREE FUNGI; experiment: MIC test against three fungi in Mycophile Broth, pH 5.0, read after 8 days (Table VII); assay type: cell-based; conditions: for MIC: 192 h
[11] = system: Rhizoctonia solani (RHI); experiment: In-vitro plant fungicide test; assay type: cell-based; conditions: 25 ppm, Table IVa; for inhibition of growth at 25 ppm: Rhizoctonia solani, read-out: % Control at 25 ppm RHI
[12] = system: Cochliobolus sativus (HEL); experiment: In-vitro plant fungicide test; assay type: cell-based; conditions: 25 ppm, Table IVa, *=Phytotoxic; for inhibition of growth at 25 ppm: Bipolaris sorokiniana, read-out: % Control at 25 ppm HEL
[13] = system: Escherichia coli (ECOL); experiment: Minimum inhibitory concentration (MIC), broth two-fold serial dilution test; conditions: for MIC: Escherichia coli, read-out: MIC (G-) ECOL, M9G (minimal salts media with glucose); for MIC (G-) ECOL: M9G (minimal salts media with glucose), trifluoroacetate
Description: When the test is ready to be done, each vessel in the dilution series, except the first vessel, contains an equal volume of compound free broth. The first vessel contains twice the volume of broth with the starting concentration of test compound. One half of the broth from the first vessel is transferred to the second vessel. After being mixed, one half the resulting volume is removed from the second vessel and transferred to the third vessel. The entire cycle is repeated sufficiently to give a series of concentrations amounting to 500, 250, 125, 63, 31, 16, 8, and 4 ppm (or 100, 50, 25, 12.5, 6.2, 3.1, 1.6, and 0.8), respectively.
Each vessel is then inoculated with a cell suspension of the appropriate test organism. Bacteria are grown in broth, fungi on agar slants for a time and at a temperature appropriate to the species being tested, and algae are a mixture of green algae and blue-green bacteria grown in a nutrient media. At the end of the growth period, in the case of bacteria, the broth is vortexed to disperse the cells.
The vessels are then incubated at the appropriate temperature. After the incubation, the vessels are examined for growth/no growth.

[14] = system: Fusarium roseum (FUS); experiment: In-vitro plant fungicide test; assay type: cell-based; conditions: Table IVa, *=Phytotoxic; for inhibition of growth at 25 ppm: Fusarium sambucinum, read-out: % Control at 25 ppm FUS, 25 ppm
[15] = system: Septoria nodorum (SEP); experiment: In-vitro plant fungicide test; assay type: cell-based; conditions: 25 ppm, Table IVa; for inhibition of growth at 25 ppm: Parastagonospora nodorum, read-out: % Control at 25 ppm SEP
[16] = system: Phytophthora capsici (PHY); experiment: In-vitro plant fungicide test; assay type: cell-based; conditions: 25 ppm, Table IVa; for inhibition of growth at 25 ppm: Phytophthora capsici, read-out: % Control at 25 ppm PHY
[17] = Table IIIc, iodopropargyl esters of peptides
[18] = Aspergillus niger, serial dilutions from 50 ppm, read after 8 days of incubation, read-out: MIC ANIG
[19] = Aureobasidium pullulans, serial dilutions from 50 ppm, read after 8 days of incubation, read-out: MIC APUL
[20] = Gloeophyllum trabeum, serial dilutions from 50 ppm, read after 8 days of incubation, read-out: MIC GTRA
[21] = M9G (minimal salts media with glucose), Table IIIa, trifluoroacetate
[22] = Aspergillus niger, pH 5, read-out: MIC ANIG, Aspergillus niger, serial dilutions from 50 ppm, read after 8 days of incubation
[23] = Aureobasidium pullulans, pH 5, read-out: MIC APUL, Aureobasidium pullulans, serial dilutions from 50 ppm, read after 8 days of incubation
[24] = Gloeophyllum trabeum, pH 5, read-out: MIC GTRA, Gloeophyllum trabeum, serial dilutions from 50 ppm, read after 8 days of incubation

Row | SMILES | inhibition of growth at 25 ppm [3] [%] | inhibition of growth at 25 ppm [4] [%] | inhibition of growth at 25 ppm [5] [%] | inhibition of growth at 25 ppm [6] [%] | MIC [10, 18] [µg/mL] | MIC [10, 19] [µg/mL] | MIC [10, 20] [µg/mL] | inhibition of growth at 25 ppm [11] [%] | inhibition of growth at 25 ppm [12] [%] | inhibition of growth at 25 ppm [14] [%] | inhibition of growth at 25 ppm [15] [%] | MIC (G-) PSAE ([2]; Table IIIa) [PPM] | MIC ([2]; Table IIIa) [µg/mL] | inhibition of growth at 25 ppm [16] [%] | MIC [10, 22] [µg/mL] | MIC [10, 23] [µg/mL] | MIC [10, 24] [µg/mL] | MIC ([13]; Table IIIa) [µg/mL] | MIC (G-) ECOL ([13]; Table IIIa) [PPM] | % Control at 25 ppm SEP [15] [%] | also measured
1 | C[C@H](NC(=O)CNC(=O)OC(C)(C)C)C(=O)OCC#CI [Compound 27, N-t-butoxycarbonylglycyl-L-alanine iodopropargyl ester] | 0 | 0 | 75 | 100 | 25 (≈ 60.9 µM) | 50 (≈ 122 µM) | 6.2 (≈ 15.1 µM) | 100 | 100 | 100 | 100 |  |  |  |  |  |  |  |  |  | MIC [1, 17]: 125 µg/mL; MIC [2, 17]: 250 µg/mL; MIC [7, 17]: 125 µg/mL; MIC ([8]; M9G (minimal salts media with glucose), Table IIIc, iodopropargyl esters of peptides, read-out: MIC (F) APUL): 8 µg/mL; MIC ([9]; M9G (minimal salts media with glucose), Table IIIc, iodopropargyl esters of peptides, read-out: MIC (F) ANIG): < 4 µg/mL; MIC [13, 17]: 250 µg/mL
2 | C[C@H](N)C(=O)OCC#CI [Compound 8, L-alanine iodopropargyl ester trifluoroacetate] | 100 | 0 | 100 | 100 |  |  |  | 100 | 100 | 100 | 100 | >100 | 125 | 100 | 12.5 | 25 | 12.5 | 64 | >100 |  | MIC (F) APUL [8, 21]: <4 PPM and 2 PPM; MIC (F) ANIG [9, 21]: <4 PPM and 3 PPM
3 | C#CCSC[C@H](NC(=O)OC(C)(C)C)C(=O)OCC#CI [Compound 6, N-t-butoxycarbonyl-S-propargyl-L-cysteine iodopropargyl ester] |  |  |  |  |  |  |  |  |  |  |  |  |  |  |  |  |  |  |  | 100 | MIC (G+) SAUR ([1]; Table IIIa): >100 PPM and 64 PPM; % Control at 25 ppm PIR ([3]; 25 ppm): 100%; % Control at 25 ppm XAN [4]: 0%; % Control at 25 ppm BOC [5]: 0%; % Control at 25 ppm PHY [16]: 100%; % Control at 25 ppm PYU [6]: 100%; MIC ANIG ([10]; Aspergillus niger, serial dilutions from 50 ppm, read after 8 days of incubation): 12.5 ppm; MIC APUL ([10]; Aureobasidium pullulans, serial dilutions from 50 ppm, read after 8 days of incubation): 25 ppm; MIC GTRA ([10]; Gloeophyllum trabeum, serial dilutions from 50 ppm, read after 8 days of incubation): 3.2 ppm; % Control at 25 ppm RHI [11]: 100%; % Control at 25 ppm HEL [12]: 100%; % Control at 25 ppm FUS ([14]; 25 ppm): 100%
4 | C[C@@H](OCc1ccccc1)[C@H](NC(=O)OC(C)(C)C)C(=O)OCC#CI [Compound 5, N-t-butoxycarbonyl-O-benzyl-L-threonine iodopropargyl ester] | 100 | 0 |  | 0 | > 50 | > 50 | 6.2 (≈ 13.1 µM) | 100 |  | 95 | 90 |  | > 100 | 50 |  |  |  | > 100 |  | 75 | MIC ([1]; Table IIIa): 63 µg/mL; MIC ([7]; Table IIIa): > 100 µg/mL; MIC ([8]; M9G (minimal salts media with glucose), Table IIIa, read-out: MIC (F) APUL): < 0.8 µg/mL; MIC ([9]; M9G (minimal salts media with glucose), Table IIIa, read-out: MIC (F) ANIG): 25 µg/mL
5 | C[C@@H](N)C(=O)OCC#CI [Compound 24, D-alanine iodopropargyl ester trifluoroacetate] | 100 | 0 | 0 | 100 |  |  |  | 100 | 100 | 75 | 100 |  |  |  | 12.5 | 25 | 12.5 | 32 | 63 |  | MIC (G+) SAUR ([1]; Table IIIa, trifluoroacetate): 63 PPM; MIC ([1]; Table IIIa): 125 µg/mL; MIC (G-) PSFL [7, 21]: 32 PPM; MIC ([7]; Table IIIa): 63 µg/mL; MIC ([8]; read-out: MIC (F) APUL, M9G (minimal salts media with glucose), Table IIIa): < 4 µg/mL; MIC ([9]; read-out: MIC (F) ANIG, M9G (minimal salts media with glucose), Table IIIa): < 4 µg/mL
6 | NCC(=O)OCC#CI [Compound 7, glycine iodopropargyl ester trifluoroacetate] | 100 | 0 | 100 | 100 |  |  |  | 100 | 100 | 100 | 100 | 125 | 100 | 100 | 25 | 50 | 12.5 | 100 | 64 |  | 
